# In ChEMBL document CHEMBL1201862, “PubChem BioAssay data set” (2004):
#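 Test compounds were applied to cells in 96-well plates for 48 hours at 5 doses. Abbreviation: GI50, concentration required for 50% inhibition of growth.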 Active and inactive are the calls of the source. Cut-off read from the data, not from the text of the source: active = GI50 up to about 1.1 µM and inactive = higher.
# Tests used:
# Assay in all cases: NCI anticancer screen, dose series, 48 h
# 786-0 = test system: 786-0
# COLO 205 = test system: COLO 205
# HCT-15 = test system: HCT-15
# HOP-62 = test system: HOP-62
# HOP-92 = test system: HOP-92
# HT-29 = test system: HT-29
# IGROV-1 = test system: IGROV-1
# KM12 = test system: KM12
# LOX IMVI = test system: LOX IMVI
# Malme-3M = test system: Malme-3M
# NCI-H522 = test system: NCI-H522
# OVCAR-5 = test system: OVCAR-5
# RPMI-8226 = test system: RPMI-8226
# SN12C = test system: SN12C
# TK-10 = test system: TK-10
# MOLT-4 = test system: MOLT-4
SMILES,GI50 (786-0),GI50 (COLO 205),GI50 (HCT-15),GI50 (HOP-62),GI50 (HOP-92),GI50 (HT-29),GI50 (IGROV-1),GI50 (KM12),GI50 (LOX IMVI),GI50 (Malme-3M),GI50 (NCI-H522),GI50 (OVCAR-5),GI50 (RPMI-8226),GI50 (SN12C),GI50 (TK-10),GI50 (MOLT-4)
CSc1nc2c(c(O)c(C)c(=O)n2C2OC(COC(C)=O)C(OC(C)=O)C(OC(C)=O)C2OC(C)=O)c(=O)n1C (configuration not stated),> 100 µM (inactive),> 100 µM (inactive),> 100 µM,> 100 µM (inactive),> 100 µM (inactive),> 100 µM (inactive),> 100 µM (inactive),> 100 µM (inactive),> 100 µM (inactive),> 100 µM (inactive),> 100 µM (inactive),> 100 µM (inactive),< 0.01 µM (active),> 100 µM (inactive),> 100 µM (inactive),
O=C1[C@@H](c2ccc(Cl)cc2)[C@H]2CC=C[C@H]2N1O,> 100 µM (inactive),> 100 µM (inactive),91.4 µM,> 100 µM (inactive),,> 100 µM (inactive),> 100 µM (inactive),> 100 µM (inactive),> 100 µM (inactive),> 100 µM (inactive),71.1 µM (inactive),,> 100 µM (inactive),> 100 µM (inactive),> 100 µM (inactive),66.1 µM (inactive)
C=CCOCCCCC(C(C)=O)C(=O)OC (configuration not stated),> 100 µM (inactive),> 100 µM (inactive),> 100 µM,,54.8 µM (inactive),> 100 µM (inactive),> 100 µM (inactive),> 100 µM (inactive),> 100 µM (inactive),> 100 µM (inactive),> 100 µM (inactive),> 100 µM (inactive),> 100 µM (inactive),> 100 µM (inactive),> 100 µM (inactive),> 100 µM (inactive)
CN1CC(=O)N(C)c2[nH]cnc2C1=O,> 100 µM (inactive),> 100 µM (inactive),> 100 µM,,,> 100 µM (inactive),> 100 µM (inactive),> 100 µM (inactive),> 100 µM (inactive),> 100 µM (inactive),,> 100 µM (inactive),> 100 µM (inactive),> 100 µM (inactive),> 100 µM (inactive),> 100 µM (inactive)
O=C1c2ccc3c4ccccc4n(-c4ccccc4)c3c2C(=O)N1c1ccc(Cl)cc1,> 100 µM (inactive),> 100 µM (inactive),> 100 µM,> 100 µM (inactive),37.3 µM (inactive),29 µM (inactive),> 100 µM (inactive),> 100 µM (inactive),> 100 µM (inactive),> 100 µM (inactive),> 100 µM (inactive),> 100 µM (inactive),,> 100 µM (inactive),> 100 µM (inactive),> 100 µM (inactive)
ON=C1CCC(c2ccccc2)CC1 (configuration not stated),> 100 µM (inactive),> 100 µM (inactive),> 100 µM,> 100 µM (inactive),> 100 µM (inactive),> 100 µM (inactive),> 100 µM (inactive),> 100 µM (inactive),> 100 µM (inactive),> 100 µM (inactive),> 100 µM (inactive),> 100 µM (inactive),,> 100 µM (inactive),> 100 µM (inactive),
CN(C)c1ccc(Cc2cc(C(C)(C)C)cc(C(C)(C)C)c2O)cc1,18.5 µM (inactive),,15.8 µM,20.9 µM (inactive),,16.1 µM (inactive),18 µM (inactive),12.2 µM (inactive),10.6 µM (inactive),22.5 µM (inactive),18.4 µM (inactive),6.27 µM (inactive),11.5 µM (inactive),16.1 µM (inactive),13.2 µM (inactive),14.5 µM (inactive)
N=C(NC(=S)N1CCCCC1)N1CCCCC1,> 100 µM (inactive),,> 100 µM,> 100 µM (inactive),> 100 µM (inactive),> 100 µM (inactive),> 100 µM (inactive),> 100 µM (inactive),> 100 µM (inactive),> 100 µM (inactive),> 100 µM (inactive),> 100 µM (inactive),> 100 µM (inactive),> 100 µM (inactive),> 100 µM (inactive),> 100 µM (inactive)
Cc1cc(Cl)ccc1NC(=O)CC1SC(N)=NC1=O (configuration not stated),> 100 µM (inactive),> 100 µM (inactive),> 100 µM,> 100 µM (inactive),,> 100 µM (inactive),> 100 µM (inactive),> 100 µM (inactive),> 100 µM (inactive),> 100 µM (inactive),> 100 µM (inactive),> 100 µM (inactive),> 100 µM (inactive),> 100 µM (inactive),> 100 µM (inactive),> 100 µM (inactive)
Cc1ccc(C2=C(c3ccccc3)C(O)(c3ccccc3)C(c3ccccc3)=C2c2ccc(C)cc2)cc1,> 100 µM (inactive),,35.2 µM,> 100 µM (inactive),,46.2 µM (inactive),> 100 µM (inactive),> 100 µM (inactive),,> 100 µM (inactive),> 100 µM (inactive),> 100 µM (inactive),35.7 µM (inactive),> 100 µM (inactive),77.4 µM (inactive),7.93 µM (inactive)
CC1=C2C(c3ccccc3)(c3ccccc3)C3C=CC2(C=N3)N(C(=O)NC2CCCCC2)C1=O (configuration not stated),15.4 µM (inactive),15.9 µM (inactive),16.4 µM,17.5 µM (inactive),13.4 µM (inactive),,18.9 µM (inactive),18.1 µM (inactive),15.7 µM (inactive),17.4 µM (inactive),,17.7 µM (inactive),15.9 µM (inactive),17.6 µM (inactive),,17.4 µM (inactive)
CCN(CC)CCCCC1CCN(CC(=O)N2CC(C)C(=O)Nc3ccccc32)CC1 (configuration not stated),> 100 µM (inactive),> 100 µM (inactive),> 100 µM,> 100 µM (inactive),> 100 µM (inactive),> 100 µM (inactive),> 100 µM (inactive),,> 100 µM (inactive),> 100 µM (inactive),,> 100 µM (inactive),> 100 µM (inactive),> 100 µM (inactive),,> 100 µM (inactive)
CC1(C)O[C@H]2[C@H](O)C[C@](O)(CO)C[C@H]2O1,> 100 µM (inactive),> 100 µM (inactive),> 100 µM,,> 100 µM (inactive),> 100 µM (inactive),> 100 µM (inactive),> 100 µM (inactive),,> 100 µM (inactive),> 100 µM (inactive),> 100 µM (inactive),> 100 µM (inactive),> 100 µM (inactive),> 100 µM (inactive),> 100 µM (inactive)
CC1(C)CC(N(C(=O)/C=C/c2ccc([N+](=O)[O-])o2)C2CCCCC2)CC(C)(C)N1,6.82 µM (inactive),,7.45 µM,20 µM (inactive),3.65 µM (inactive),4.49 µM (inactive),14.3 µM (inactive),10.3 µM (inactive),12 µM (inactive),,7.91 µM (inactive),23.6 µM (inactive),3.29 µM (inactive),6.22 µM (inactive),21.3 µM (inactive),3.96 µM (inactive)
